Experimental data published in patent US20260325521A1, “TREATMENT OF IDIOPATHIC PULMONARY FIBROSIS WITH ENSIFENTRINE” (Verona Pharma Limited, priority 2022, published 2026).
Entries after “also recorded” stand apart in the source; their conditions may differ.

Key:
Assay type in all cases: in vivo
IL-6 = assay: Clinical study in COPD patients: change in blood IL-6 with inhaled ensifentrine compared with placebo; conditions: inhaled by nebuliser, 3 mg BID, 24 weeks, FIG. 1
Procedure: (§1) A clinical study was conducted to determine the efficacy of ensifentrine in treating COPD compared with placebo. Ensifentrine was administered by nebuliser at a dose of 3 mg twice daily (BID) for 24 weeks. The study was a multi-centre, randomized, double-blind, parallel-group, placebo-controlled trial with around 800 patients and 5:3 randomization.
(§2) The study population included patients aged 40-80 years with moderate to severe COPD (FEV1 30%-70% p.n., FEV1/forced vital capacity (FVC) ratio <0.7, with mMRC ≥2). The randomization stratified (a) the use of stable background maintenance LAMA or LABA therapy use (approx. 50%. yes or no) and (b) cigarette smoking (current or former). Inhaled corticosteroid (ICS) maintenance therapy was permitted in up to 20% of patients under certain provisions.
(§3) The effect of ensifentrine on the change in blood IL-6 and IL-8 was measured.
(§4) The investigational product and placebo were provided in 2.5 mL unit dose format in an ampule and administered via a nebuliser.

[1] = Diarrhoea as side effect of inhaled ensifentrine in patients
IL-8 = assay: Clinical study in COPD patients: change in blood IL-8 with inhaled ensifentrine compared with placebo; conditions: inhaled by nebuliser, 3 mg BID, 24 weeks, FIG. 1
Procedure: as §1, §2, §3, §4

[2] = test system: bleomycin-induced pulmonary fibrosis; assay: Efficacy in treatment of bleomycin-induced pulmonary fibrosis in rats (overall); conditions: inhalation, 3 mg/kg and 10 mg/kg
Procedure: (§5) An in vivo study was conducted to determine the efficacy of ensifentrine in the treatment of bleomycin-induced pulmonary fibrosis in rats in comparison to a control. Rats were administered bleomycin to induce pulmonary fibrosis. After a week, they then received a daily inhaled dosage of ensifentrine or a control over a period of two weeks. At the end of the two weeks, the rats were sacrificed and their airways were analysed for Bronchoalveolar lavage (BAL) differential cell counts and TGF-β concentration.
(§6) At day 0, the rats were subjected to an intratracheal challenge of either 0.9% w/v saline or bleomycin, the latter used to induce pulmonary fibrosis.
(§7) Starting on day 7, two groups of 12 rats from the bleomycin challenge group were administered an inhaled dose of ensifentrine at either 3 mg/kg (Experiment 1) or 10 mg/kg (Experiment 2) on a daily basis for two weeks, terminating on day 21. The ensifentrine was administered as a suspension in the vehicle suspension article.
Two control experiments were also conducted. Control 1 subjected 12 rats from the saline challenge group to daily administration of the vehicle suspension article via inhalation for the full 21 days. Control 2 subjected 12 rats from the bleomycin challenge group to daily administration of the vehicle suspension article via inhalation for the full 21 days. […]

TGF-β = assay: Bleomycin-induced pulmonary fibrosis in rats: TGF-β concentration
Procedure: as §5
(§8) The BAL differential cell count provided a total inflammatory cell count so that changes in inflammation following treatment could be observed. TGF-β is a key cytokine in the development of tissue fibrosis. Macrophages and other immune cells produce TGF-β, which induces the differentiation of fibroblasts to myofibroblasts and increases TGF-β expression. Overexpression of active TGF-β1 in the lungs of rodents causes severe and progressive tissue fibrosis, including fibroblastic foci and honeycomb formation.
as §6, §7
(§9) Two control experiments were also conducted. Control 1 subjected 12 rats from the saline challenge group to daily administration of the vehicle suspension article via inhalation for the full 21 days. Control 2 subjected 12 rats from the bleomycin challenge group to daily administration of the vehicle suspension article via inhalation for the full 21 days.
(§10) At the end of the 21-day period, the rats were sacrificed and the BAL differential cell counts and the TGF-β concentration data were collected.
An in vivo study was conducted to compare the efficacy of ensifentrine and nintedanib in the treatment of bleomycin-induced pulmonary fibrosis in rats. Following the same initial experimental procedure as in Example 3, 12 rats from the bleomycin challenge group were administered a daily dose of 100 mg/kg of nintedanib via an oral gavage for two weeks, starting from day 7 (Experiment 3). A new control experiment was also conducted (Control 3), administering the vehicle suspension article orally in an aqueous solution.
At day 21, the rats were sacrificed and their airways were analysed to calculate the TGF-β concentration. The results were compared to those of Experiments 1 and 2 (Example 3).

[3] = test system: bleomycin-induced lung fibrosis; assay: Rodent model of bleomycin-induced lung fibrosis (Example 2); conditions: rodents, inhalation; dose and period not given; histological fibrotic area
Procedure: The anti-fibrotic activity of ensifentrine is assessed using a rodent model of bleomycin-induced lung fibrosis.
Bleomycin is administered to anaesthetised rodents to induce lung fibrosis. Ensifentrine is then administered to the test rodents by inhalation for a period, and the rodents are subsequently killed. Lung samples are obtained for histological studies to determine fibrotic area.

[4] = test system: inflammatory cell and macrophage infiltration into the rat airways; assay: Bleomycin-induced pulmonary fibrosis in rats: BAL differential cell counts
Procedure: as §5, §8, §6, §7, §9, §10

[5] = inhaled 3 mg/kg/day QD from day 7, day 21, vs bleomycin Control 2 (Experiment 1)
[6] = inhaled 10 mg/kg/day QD from day 7, day 21, vs bleomycin Control 2 (Experiment 2)

COc1cc2c(cc1OC)-c1c/c(=N\c3c(C)cc(C)cc3C)n(CCNC(N)=O)c(=O)n1CC2 [ensifentrine, N-(2-{(2E)-9,10-dimethoxy-4-oxo-2-[(2,4,6-trimethylphenyl)imino]-6,7-dihydro-2H-pyrimido[6,1-a]isoquinolin-3(4H)-yl}ethyl)urea]
blood IL-6 (IL-6): reduce blood IL-6; also recorded: reduction in blood IL-6 | diarrhoea (side effect) [1]: avoid side effects such as diarrhoea; also recorded: not to be associated with diarrhoea | blood IL-8 (IL-8): reduce blood IL-6 and IL-8; also recorded: reduction in blood IL-6 and IL-8 | efficacy in the treatment of bleomycin-induced pulmonary fibrosis [2]: effective | TGF-β concentration in the rat lungs compared with nintedanib (TGF-β; day 21, inhaled ensifentrine 3 mg/kg/day (Experiment 1) vs oral nintedanib 100 mg/kg/day (Experiment 3)): lower than the TGF-β concentration following treatment with nintedanib; also recorded: greater reduction in TGF-β concentration than orally administered nintedanib | TGF-β concentration in the rat lungs compared with nintedanib (TGF-β; day 21, inhaled ensifentrine 10 mg/kg/day (Experiment 2) vs oral nintedanib 100 mg/kg/day (Experiment 3)): lower than the TGF-β concentration following treatment with nintedanib; also recorded: greater reduction in TGF-β concentration than orally administered nintedanib | TGF-β concentration (TGF-β; [5]): lower; also recorded: reduction in BAL differential cell count and TGF-β concentration | TGF-β concentration (TGF-β; [6]): lower; also recorded: reduction in BAL differential cell count and TGF-β concentration | anti-fibrotic effect in bleomycin-induced lung fibrosis [3]: anti-fibrotic effect | BAL differential cell count ([4]; inhaled 3 mg/kg QD from day 7, day 21 (Experiment 1)): reduction in BAL differential cell count | macrophage infiltration into the airways (BAL differential cell counts) [4, 5]: reduction in total inflammatory cell and macrophage infiltration | total inflammatory cell infiltration into the airways (BAL differential cell counts) [4, 5]: reduction in total inflammatory cell | BAL differential cell count ([4]; inhaled 10 mg/kg QD from day 7, day 21 (Experiment 2)): reduction in BAL differential cell count | macrophage infiltration into the airways (BAL differential cell counts) [4, 6]: reduction in total inflammatory cell and macrophage infiltration | total inflammatory cell infiltration into the airways (BAL differential cell counts) [4, 6]: reduction in total inflammatory cell
